From ChEMBL document CHEMBL3351957, “Synthesis and pharmacological evaluation of optically pure, novel carbonyl guanidine derivatives as dual 5-HT2B and 5-HT7 receptor antagonists” (Bioorg Med Chem, 2014)
The source made the active and inactive calls. The rule behind the calls is not given here.

Assays:
[1] = target: T1, 5-hydroxytryptamine receptor 2B (Homo sapiens, UniProt P41595); experiment: Displacement of [3H]mesulergine from human 5-HT2B receptor expressed in HEK293 cells; type: cell-based
[2] = target: 5-hydroxytryptamine receptor 7 (Homo sapiens, UniProt P34969); experiment: Displacement of [3H]5-HT from human 5-HT7 receptor expressed in CHO cells; type: cell-based
[3] = test system: Mus musculus; experiment: Reversal of 5-CT-induced hypothermic effect in po dosed mouse assessed as minimum effective dose; type: functional; settings: for minimal effective dose: read-out: MED
[4] = target: T1, 5-hydroxytryptamine receptor 2B; experiment: Antagonist activity at human 5-HT2B receptor expressed in HEK293 cells assessed as [3H]PI metabolism; type: cell-based
[5] = test system: Cavia porcellus; experiment: Suppression of 5-HT-induced dural protein extravasation in po dosed Hartley guinea pig; type: functional, organism-based
[6] = test system: Cavia porcellus; experiment: Suppression of 5-HT-induced dural protein extravasation in Hartley guinea pig at 10 mg/kg, po; type: functional, organism-based; set-up: dose 10 mg/kg
[7] = target: 5-hydroxytryptamine receptor 2A (Homo sapiens, UniProt P28223); experiment: Binding affinity to serotonin 5-HT2A receptor (unknown origin)
[8] = target: T2, 5-hydroxytryptamine receptor 2C (Homo sapiens, UniProt P28335); experiment: Binding affinity to serotonin 5-HT2C receptor (unknown origin)
T2 sequence (P28335 whole entry): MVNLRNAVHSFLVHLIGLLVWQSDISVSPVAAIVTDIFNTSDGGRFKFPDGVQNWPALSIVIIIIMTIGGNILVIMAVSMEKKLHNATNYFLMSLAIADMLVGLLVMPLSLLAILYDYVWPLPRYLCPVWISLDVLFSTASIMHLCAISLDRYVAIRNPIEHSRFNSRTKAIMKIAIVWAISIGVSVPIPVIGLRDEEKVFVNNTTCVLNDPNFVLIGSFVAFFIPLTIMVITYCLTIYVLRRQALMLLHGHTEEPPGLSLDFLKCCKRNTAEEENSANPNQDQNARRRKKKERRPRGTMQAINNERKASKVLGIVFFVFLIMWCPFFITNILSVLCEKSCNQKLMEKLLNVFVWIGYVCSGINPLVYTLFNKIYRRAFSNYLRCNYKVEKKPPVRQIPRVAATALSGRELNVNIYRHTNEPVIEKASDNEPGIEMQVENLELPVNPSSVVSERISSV

[9] = target: T3, Adrenergic receptor alpha-1 (Homo sapiens, UniProt P35348+P25100+P35368); experiment: Binding affinity to alpha1-adrenergic receptor (unknown origin)
T3 sequence (P35348 whole entry): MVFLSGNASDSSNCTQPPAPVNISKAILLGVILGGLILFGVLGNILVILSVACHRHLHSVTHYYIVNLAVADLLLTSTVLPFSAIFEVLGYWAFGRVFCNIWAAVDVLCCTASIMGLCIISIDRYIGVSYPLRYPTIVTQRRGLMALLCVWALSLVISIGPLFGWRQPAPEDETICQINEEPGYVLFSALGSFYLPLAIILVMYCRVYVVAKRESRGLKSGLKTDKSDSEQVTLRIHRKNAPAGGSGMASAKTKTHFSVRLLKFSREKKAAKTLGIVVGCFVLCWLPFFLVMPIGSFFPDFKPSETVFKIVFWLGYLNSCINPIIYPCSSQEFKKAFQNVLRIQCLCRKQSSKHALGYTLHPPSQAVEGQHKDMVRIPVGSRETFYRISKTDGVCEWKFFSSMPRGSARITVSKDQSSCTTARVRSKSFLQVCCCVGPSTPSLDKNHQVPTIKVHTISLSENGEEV
T3 sequence (P25100 whole entry): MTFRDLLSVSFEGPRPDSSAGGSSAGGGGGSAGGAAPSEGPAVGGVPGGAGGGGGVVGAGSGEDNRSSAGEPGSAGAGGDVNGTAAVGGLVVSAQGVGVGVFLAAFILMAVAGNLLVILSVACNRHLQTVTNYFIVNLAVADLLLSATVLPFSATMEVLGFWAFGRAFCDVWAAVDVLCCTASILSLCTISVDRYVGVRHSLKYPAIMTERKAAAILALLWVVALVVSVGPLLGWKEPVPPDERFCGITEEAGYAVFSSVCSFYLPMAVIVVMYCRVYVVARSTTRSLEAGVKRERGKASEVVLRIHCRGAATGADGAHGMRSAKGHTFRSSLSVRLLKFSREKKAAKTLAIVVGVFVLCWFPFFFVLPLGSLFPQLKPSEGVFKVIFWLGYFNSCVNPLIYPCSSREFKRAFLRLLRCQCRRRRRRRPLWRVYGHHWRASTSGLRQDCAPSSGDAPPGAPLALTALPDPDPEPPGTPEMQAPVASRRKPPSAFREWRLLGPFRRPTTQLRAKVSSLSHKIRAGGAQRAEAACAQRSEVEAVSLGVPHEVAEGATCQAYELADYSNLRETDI
T3 sequence (P35368 whole entry): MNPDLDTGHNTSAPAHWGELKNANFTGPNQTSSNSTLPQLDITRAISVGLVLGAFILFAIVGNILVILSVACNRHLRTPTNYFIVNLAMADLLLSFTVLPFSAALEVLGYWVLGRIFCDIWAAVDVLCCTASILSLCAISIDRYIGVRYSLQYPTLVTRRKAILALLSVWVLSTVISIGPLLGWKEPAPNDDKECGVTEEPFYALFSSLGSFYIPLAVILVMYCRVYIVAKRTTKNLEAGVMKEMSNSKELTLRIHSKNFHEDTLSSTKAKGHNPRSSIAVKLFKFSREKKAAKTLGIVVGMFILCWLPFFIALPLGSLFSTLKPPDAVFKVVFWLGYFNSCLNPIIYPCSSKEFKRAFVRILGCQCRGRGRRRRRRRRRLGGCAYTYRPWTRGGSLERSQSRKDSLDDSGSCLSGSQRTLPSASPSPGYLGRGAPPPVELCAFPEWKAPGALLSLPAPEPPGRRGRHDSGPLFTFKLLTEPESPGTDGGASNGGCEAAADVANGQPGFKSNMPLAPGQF

[10] = target: D(2) dopamine receptor (Homo sapiens, UniProt P14416); experiment: Binding affinity to dopamine D2 receptor (unknown origin)
[11] = target: T4, Muscarinic acetylcholine receptor M5 (Homo sapiens, UniProt P08912); experiment: Binding affinity to muscarinic M5 receptor (unknown origin)
T4 sequence (P08912 whole entry): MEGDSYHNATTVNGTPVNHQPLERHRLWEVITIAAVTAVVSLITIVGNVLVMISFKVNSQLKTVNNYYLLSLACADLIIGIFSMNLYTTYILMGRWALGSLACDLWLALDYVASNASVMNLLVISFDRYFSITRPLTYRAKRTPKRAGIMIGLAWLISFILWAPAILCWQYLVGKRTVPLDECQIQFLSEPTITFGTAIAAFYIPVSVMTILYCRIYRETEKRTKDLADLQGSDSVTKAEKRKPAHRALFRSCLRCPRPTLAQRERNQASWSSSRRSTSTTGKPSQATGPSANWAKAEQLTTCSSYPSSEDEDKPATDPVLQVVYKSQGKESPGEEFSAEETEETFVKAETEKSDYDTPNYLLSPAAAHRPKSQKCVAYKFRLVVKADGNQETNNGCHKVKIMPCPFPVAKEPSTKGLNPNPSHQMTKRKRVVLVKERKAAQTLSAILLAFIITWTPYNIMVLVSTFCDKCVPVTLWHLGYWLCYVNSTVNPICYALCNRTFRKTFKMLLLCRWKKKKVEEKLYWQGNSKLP

Sequence of 5-hydroxytryptamine receptor 7 (P34969 whole entry): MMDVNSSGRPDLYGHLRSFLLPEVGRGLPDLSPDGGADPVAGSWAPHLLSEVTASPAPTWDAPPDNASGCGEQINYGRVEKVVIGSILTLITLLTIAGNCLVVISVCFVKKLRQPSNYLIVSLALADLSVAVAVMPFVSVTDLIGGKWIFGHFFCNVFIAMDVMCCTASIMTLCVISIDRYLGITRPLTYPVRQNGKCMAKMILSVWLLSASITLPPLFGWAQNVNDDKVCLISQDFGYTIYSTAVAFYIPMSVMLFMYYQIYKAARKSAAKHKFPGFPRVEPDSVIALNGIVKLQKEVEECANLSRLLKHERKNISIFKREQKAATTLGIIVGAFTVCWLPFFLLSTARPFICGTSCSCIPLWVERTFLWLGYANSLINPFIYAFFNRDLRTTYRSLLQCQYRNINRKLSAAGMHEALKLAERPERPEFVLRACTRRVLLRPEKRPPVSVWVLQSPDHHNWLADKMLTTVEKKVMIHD
T1 sequence (P41595 whole entry): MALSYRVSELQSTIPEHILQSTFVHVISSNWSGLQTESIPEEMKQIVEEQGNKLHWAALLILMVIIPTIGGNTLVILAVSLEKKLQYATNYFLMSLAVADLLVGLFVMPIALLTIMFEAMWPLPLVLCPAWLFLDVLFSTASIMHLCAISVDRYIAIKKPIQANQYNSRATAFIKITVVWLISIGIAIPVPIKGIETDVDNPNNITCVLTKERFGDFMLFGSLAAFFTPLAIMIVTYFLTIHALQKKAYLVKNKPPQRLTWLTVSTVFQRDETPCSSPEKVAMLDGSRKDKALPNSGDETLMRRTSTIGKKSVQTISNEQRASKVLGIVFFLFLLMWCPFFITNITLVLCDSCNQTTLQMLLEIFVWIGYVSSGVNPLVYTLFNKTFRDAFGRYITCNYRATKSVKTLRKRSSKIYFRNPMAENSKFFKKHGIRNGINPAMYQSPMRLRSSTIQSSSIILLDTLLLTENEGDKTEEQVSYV
Sequence of D(2) dopamine receptor (P14416 whole entry): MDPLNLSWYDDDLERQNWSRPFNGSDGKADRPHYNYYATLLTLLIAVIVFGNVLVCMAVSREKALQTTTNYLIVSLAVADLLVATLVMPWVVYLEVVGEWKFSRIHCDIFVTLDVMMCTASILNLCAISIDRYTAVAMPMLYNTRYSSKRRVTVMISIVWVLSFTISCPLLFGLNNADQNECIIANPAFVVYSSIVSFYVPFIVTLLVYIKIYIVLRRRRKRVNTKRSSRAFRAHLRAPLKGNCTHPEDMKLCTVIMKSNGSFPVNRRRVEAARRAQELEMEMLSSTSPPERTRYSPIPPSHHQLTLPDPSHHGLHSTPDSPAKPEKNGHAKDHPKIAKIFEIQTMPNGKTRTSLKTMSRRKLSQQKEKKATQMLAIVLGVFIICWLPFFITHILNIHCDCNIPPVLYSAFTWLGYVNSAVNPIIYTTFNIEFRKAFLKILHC
Sequence of 5-hydroxytryptamine receptor 2A (P28223 whole entry): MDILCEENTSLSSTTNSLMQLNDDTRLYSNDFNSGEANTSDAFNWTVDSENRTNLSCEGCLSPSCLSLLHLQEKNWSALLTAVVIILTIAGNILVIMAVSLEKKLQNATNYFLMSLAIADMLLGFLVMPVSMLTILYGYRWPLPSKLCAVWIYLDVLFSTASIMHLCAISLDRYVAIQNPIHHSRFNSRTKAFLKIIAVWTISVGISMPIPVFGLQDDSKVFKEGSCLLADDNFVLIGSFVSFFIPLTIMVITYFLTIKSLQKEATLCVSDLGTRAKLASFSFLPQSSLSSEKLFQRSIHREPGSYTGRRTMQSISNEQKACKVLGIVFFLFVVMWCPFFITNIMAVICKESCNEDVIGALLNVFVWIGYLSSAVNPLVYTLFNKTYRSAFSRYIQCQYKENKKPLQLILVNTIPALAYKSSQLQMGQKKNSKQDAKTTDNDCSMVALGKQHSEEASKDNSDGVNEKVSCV

Row | Structure (SMILES) | Ki [1] | Ki [2] | minimal effective dose [3] | further results
1 | NC(N)=NC(=O)c1ccc2c(c1)C1(CC1)c1ccccc1-2 | 0.51 nM | 4.9 nM |  | MED [3]: inactive
2 | COC1(C)c2ccccc2-c2ccc(C(=O)N=C(N)N)cc21.Cl (stereo not drawn) | 3.3 nM | 1.4 nM | 30 mg/kg | 
3 | CCC1(OC)c2ccccc2-c2ccc(C(=O)N=C(N)N)cc21.Cl (stereo not drawn) | 4.8 nM | 0.6 nM | 10 mg/kg | 
4 | NC(N)=NC(=O)c1ccc2c(c1)[C@]1(CCCO1)c1ccccc1-2 | 2.7 nM |  |  | IC50 [4]: 35 nM; inhibition [5]: Dose-dependent effect; inhibition [6]: Active
5 | CC1(O)c2ccccc2-c2ccc(C(=O)N=C(N)N)cc21.Cl (stereo not drawn) |  |  | 30 mg/kg | 
6 | COCC1(OC)c2ccccc2-c2ccc(C(=O)N=C(N)N)cc21.Cl (stereo not drawn) | 2 nM | 0.76 nM | > 30 mg/kg | 
7 | CCC1(O)c2ccccc2-c2ccc(C(=O)N=C(N)N)cc21 (stereo not drawn) | 41 nM | 1.2 nM |  | 
8 | NC(N)=NC(=O)c1ccc2c(c1)[C@@]1(CCCO1)c1ccccc1-2 | 5.1 nM |  |  | IC50 [4]: 73 nM; inhibition [5]: Dose-dependent effect; inhibition [6]: Active
9 | NC(N)=NC(=O)c1ccc2c(c1)C1(CCOCC1)c1ccccc1-2 | 9.1 nM | 1.3 nM |  | 
10 | CCCCC1(O)c2ccccc2-c2ccc(C(=O)N=C(N)N)cc21 (stereo not drawn) | 31 nM | > 100 nM |  | 
11 | Cl.NC(N)=NC(=O)c1ccc2c(c1)C1(CCCC1)c1ccccc1-2 | 1.7 nM | 1.8 nM | ≤ 100 mg/kg | 
12 | Cl.NC(N)=NC(=O)c1ccc2c(c1)C1(CCCO1)c1ccccc1-2 (stereo not drawn) | 5.1 nM |  | 3 mg/kg | Ki [7]: > 1000 nM; Ki [8]: 152 nM; Ki [9]: > 1000 nM; Ki [10]: > 1000 nM; Ki [11]: > 1000 nM; IC50 [4]: 55 nM
